Converted amounts (≈) assume the structure as drawn.
What was measured:
[1] = Modulation of gamma-secretase in CHO cells expressing human APP695 assessed as inhibition of Abeta42 level after 20 hrs by FRET HTS assay; assay type: cell-based; conditions: Cricetulus griseus
[2] = Kinetic solubility in PBS buffer at pH 7.4 by UV/vis absorbance analysis; assay type: physicochemical; conditions: read-out: Kinetic_solubility
Gamma-secretase = assay: Modulation of gamma-secretase in human SH-SY5Y cells overexpressing wild-type human APP751 assessed as inhibition of Abeta42 level after 24 hrs by ELISA; assay type: cell-based
[3] = Apparent permeability in MDCK cells expressing MDR1; assay type: ADME, cell-based, Canis lupus familiaris; conditions: dog
[4] = AUC (last) in CD1 mouse at 1 mg/kg, iv administered as single dose by HPLC/MS/MS analysis; assay type: ADME, organism-based; design: dose 1 mg/kg, time 0 - last, route intravenous; conditions: in vivo
[5] = Tmax in CD1 mouse at 5 mg/kg administered via oral gavage by HPLC/MS/MS analysis; assay type: ADME, organism-based; conditions: in vivo
[6] = Volume of distribution at steady state in CD1 mouse at 1 mg/kg, iv administered as single dose by HPLC/MS/MS analysis; assay type: ADME, organism-based; conditions: in vivo, read-out: Vdss
Cytochrome P450 2C9 = Cytochrome P450 2C9 (Homo sapiens, UniProt P11712); assay: Inhibition of recombinant CYP2C9 (unknown origin) by fluorescence-based assay; assay type: ADME
[7] = Ratio of drug level in brain to plasma in CD1 mouse at 5 mg/kg administered via oral gavage measured after 4 hrs by HPLC/MS/MS analysis; assay type: ADME, organism-based; conditions: read-out: BPR
[8] = Cmax in CD1 mouse at 5 mg/kg administered via oral gavage by HPLC/MS/MS analysis; assay type: ADME, organism-based; design: dose 5 mg/kg, route oral; conditions: in vivo
[9] = Lipophilicity, log D of the compound; assay type: physicochemical; conditions: octanol/water
[10] = molecular target: Voltage-gated inwardly rectifying potassium channel KCNH2 (Homo sapiens, UniProt Q12809); assay: Inhibition of human ERG channel expressed in HEK293 cells by patch-clamp assay; assay type: cell-based
[11] = Cmax in CD1 mouse at 1 mg/kg, iv administered as single dose by HPLC/MS/MS analysis; assay type: ADME, organism-based; design: dose 1 mg/kg, route intravenous; conditions: in vivo
[12] = Stability in mouse liver microsomes assessed as compound remaining at 1 uM incubated for 30 mins; assay type: ADME, Microsome; conditions: read-out: Stability
[13] = AUC (infinity) in CD1 mouse at 1 mg/kg, iv administered as single dose by HPLC/MS/MS analysis; assay type: ADME, organism-based; design: dose 1 mg/kg, route intravenous, time infinity; conditions: in vivo
[14] = Ratio of drug level in brain to plasma in CD1 mouse at 5 mg/kg administered via oral gavage by HPLC/MS/MS analysis; assay type: ADME, organism-based; conditions: read-out: BPR
[15] = Protein binding in plasma (unknown origin); assay type: ADME, cell-free; conditions: read-out: PPB (converted)
[16] = AUC (last) in CD1 mouse at 5 mg/kg administered via oral gavage by HPLC/MS/MS analysis; assay type: ADME, organism-based; design: dose 5 mg/kg, time 0 - last, route oral; conditions: in vivo
[17] = Tmax in CD1 mouse at 1 mg/kg, iv administered as single dose by HPLC/MS/MS analysis; assay type: ADME, organism-based; conditions: in vivo
[18] = Half life in CD1 mouse at 5 mg/kg administered via oral gavage by HPLC/MS/MS analysis; assay type: ADME, organism-based; conditions: in vivo
[19] = Ratio of drug level in brain to plasma in CD1 mouse at 5 mg/kg administered via oral gavage measured after 8 hrs by HPLC/MS/MS analysis; assay type: ADME, organism-based; conditions: read-out: BPR
[20] = AUC (infinity) in CD1 mouse at 5 mg/kg administered via oral gavage by HPLC/MS/MS analysis; assay type: ADME, organism-based; design: dose 5 mg/kg, time infinity, route oral; conditions: in vivo
[21] = Stability in rat liver microsomes assessed as compound remaining at 1 uM incubated for 30 mins; assay type: ADME, Microsome; conditions: read-out: Stability
Cytochrome P450 3A4 = Cytochrome P450 3A4 (Homo sapiens, UniProt P08684); assay: Inhibition of recombinant CYP3A4 (unknown origin) by fluorescence-based assay; assay type: ADME
Cytochrome P450 2C19 = Cytochrome P450 2C19 (Homo sapiens, UniProt P33261); assay: Inhibition of recombinant CYP2C19 (unknown origin) by fluorescence-based assay; assay type: ADME
[22] = Stability in human liver microsomes assessed as compound remaining at 1 uM incubated for 30 mins; assay type: ADME, Microsome; conditions: read-out: Stability
[23] = Clearance in CD1 mouse at 1 mg/kg, iv administered as single dose by HPLC/MS/MS analysis; assay type: ADME, organism-based; conditions: in vivo
[24] = Efflux ratio of permeability from basolateral to apical over apical to basolateral side of MDCK cells expressing MDR1; assay type: ADME, cell-based, Canis lupus familiaris; conditions: dog
Cytochrome P450 1A2 = molecular target: T1, Cytochrome P450 1A2 (Homo sapiens, UniProt P05177); assay: Inhibition of recombinant CYP1A2 (unknown origin) by fluorescence-based assay; assay type: ADME
T1 sequence (P05177 whole entry): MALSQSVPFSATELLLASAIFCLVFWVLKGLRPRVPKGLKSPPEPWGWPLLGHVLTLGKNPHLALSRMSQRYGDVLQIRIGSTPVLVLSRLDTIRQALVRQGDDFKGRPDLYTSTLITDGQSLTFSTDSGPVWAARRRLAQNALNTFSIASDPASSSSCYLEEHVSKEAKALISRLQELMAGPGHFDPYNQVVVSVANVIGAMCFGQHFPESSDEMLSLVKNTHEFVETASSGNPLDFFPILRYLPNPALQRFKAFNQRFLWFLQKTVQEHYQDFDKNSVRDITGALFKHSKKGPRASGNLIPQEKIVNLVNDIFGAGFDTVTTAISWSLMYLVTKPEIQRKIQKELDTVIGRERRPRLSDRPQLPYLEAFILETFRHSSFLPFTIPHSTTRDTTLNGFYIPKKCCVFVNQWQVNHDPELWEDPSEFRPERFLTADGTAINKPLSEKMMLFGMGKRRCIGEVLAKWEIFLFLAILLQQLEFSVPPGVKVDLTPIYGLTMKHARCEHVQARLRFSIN

[25] = Clearance in CD1 mouse at 1 mg/kg administered intravenously by HPLC/MS/MS analysis relative to hepatic blood flow; conditions: in vivo, iv
Cytochrome P450 2D6 = Cytochrome P450 2D6 (Homo sapiens, UniProt P10635); assay: Inhibition of recombinant CYP2D6 (unknown origin) by fluorescence-based assay; assay type: ADME
[26] = Half life in CD1 mouse at 1 mg/kg, iv administered as single dose by HPLC/MS/MS analysis; assay type: ADME, organism-based; conditions: in vivo
[27] = Ratio of drug level in brain to plasma in CD1 mouse at 1 mg/kg, iv administered as single dose measured after 1 hr by HPLC/MS/MS analysis; assay type: ADME, organism-based; conditions: read-out: BPR

Cytochrome P450 2C19, sequence (P33261 whole entry): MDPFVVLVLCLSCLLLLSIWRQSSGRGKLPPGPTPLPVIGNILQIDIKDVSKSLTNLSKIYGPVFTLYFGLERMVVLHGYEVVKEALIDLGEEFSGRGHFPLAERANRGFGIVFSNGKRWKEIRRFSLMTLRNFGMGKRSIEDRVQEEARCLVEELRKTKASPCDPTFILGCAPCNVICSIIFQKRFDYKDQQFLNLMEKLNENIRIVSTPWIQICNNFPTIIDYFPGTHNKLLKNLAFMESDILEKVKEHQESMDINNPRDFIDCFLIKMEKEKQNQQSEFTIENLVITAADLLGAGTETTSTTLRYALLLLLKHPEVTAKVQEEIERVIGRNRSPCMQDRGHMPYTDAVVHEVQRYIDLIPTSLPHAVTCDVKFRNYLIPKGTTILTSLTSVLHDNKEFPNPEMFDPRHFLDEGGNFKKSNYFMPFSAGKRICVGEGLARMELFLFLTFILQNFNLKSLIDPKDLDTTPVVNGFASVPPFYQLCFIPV
Cytochrome P450 2D6, sequence (P10635 whole entry): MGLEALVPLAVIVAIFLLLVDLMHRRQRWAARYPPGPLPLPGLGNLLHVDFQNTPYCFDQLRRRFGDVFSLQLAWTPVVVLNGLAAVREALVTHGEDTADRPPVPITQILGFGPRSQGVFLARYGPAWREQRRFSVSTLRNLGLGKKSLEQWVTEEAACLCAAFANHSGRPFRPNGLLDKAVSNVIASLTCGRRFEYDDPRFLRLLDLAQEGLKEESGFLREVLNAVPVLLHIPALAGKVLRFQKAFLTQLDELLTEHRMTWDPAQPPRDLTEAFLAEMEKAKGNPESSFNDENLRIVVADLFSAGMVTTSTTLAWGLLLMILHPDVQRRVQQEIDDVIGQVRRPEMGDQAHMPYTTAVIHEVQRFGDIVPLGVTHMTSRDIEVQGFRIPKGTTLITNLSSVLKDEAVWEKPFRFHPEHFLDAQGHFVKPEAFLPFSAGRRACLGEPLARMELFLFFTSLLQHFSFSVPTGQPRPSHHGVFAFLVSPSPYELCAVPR
Voltage-gated inwardly rectifying potassium channel KCNH2, sequence (Q12809 whole entry): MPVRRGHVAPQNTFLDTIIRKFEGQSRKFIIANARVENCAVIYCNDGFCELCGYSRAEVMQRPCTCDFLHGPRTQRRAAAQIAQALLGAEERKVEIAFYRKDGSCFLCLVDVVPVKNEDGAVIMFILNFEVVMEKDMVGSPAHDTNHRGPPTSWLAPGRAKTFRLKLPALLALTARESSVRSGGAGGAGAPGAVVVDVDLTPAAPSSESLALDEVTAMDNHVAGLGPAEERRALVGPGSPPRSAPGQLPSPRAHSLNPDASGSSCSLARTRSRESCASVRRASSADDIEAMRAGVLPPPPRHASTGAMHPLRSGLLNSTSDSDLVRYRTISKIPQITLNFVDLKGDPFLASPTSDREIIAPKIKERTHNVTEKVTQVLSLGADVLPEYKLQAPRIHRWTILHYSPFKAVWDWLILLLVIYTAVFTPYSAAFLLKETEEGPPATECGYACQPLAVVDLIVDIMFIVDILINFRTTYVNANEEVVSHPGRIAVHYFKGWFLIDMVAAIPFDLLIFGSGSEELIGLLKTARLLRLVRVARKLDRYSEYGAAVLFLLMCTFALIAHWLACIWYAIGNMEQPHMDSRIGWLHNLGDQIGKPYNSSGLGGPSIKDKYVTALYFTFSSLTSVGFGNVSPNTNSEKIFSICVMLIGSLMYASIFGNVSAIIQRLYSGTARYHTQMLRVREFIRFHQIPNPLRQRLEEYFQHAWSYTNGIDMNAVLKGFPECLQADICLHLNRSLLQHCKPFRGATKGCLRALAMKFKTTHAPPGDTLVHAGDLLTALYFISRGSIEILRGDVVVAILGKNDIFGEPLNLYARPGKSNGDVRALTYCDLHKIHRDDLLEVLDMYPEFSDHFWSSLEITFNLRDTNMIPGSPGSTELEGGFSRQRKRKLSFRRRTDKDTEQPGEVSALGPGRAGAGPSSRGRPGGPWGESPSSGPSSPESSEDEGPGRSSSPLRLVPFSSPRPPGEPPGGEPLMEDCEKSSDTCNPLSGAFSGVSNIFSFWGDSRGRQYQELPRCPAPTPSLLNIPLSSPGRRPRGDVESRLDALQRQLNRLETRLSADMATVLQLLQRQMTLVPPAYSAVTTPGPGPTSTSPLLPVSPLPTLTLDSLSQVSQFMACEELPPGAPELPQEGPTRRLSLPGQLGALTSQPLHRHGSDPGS
Cytochrome P450 3A4, sequence (P08684 whole entry): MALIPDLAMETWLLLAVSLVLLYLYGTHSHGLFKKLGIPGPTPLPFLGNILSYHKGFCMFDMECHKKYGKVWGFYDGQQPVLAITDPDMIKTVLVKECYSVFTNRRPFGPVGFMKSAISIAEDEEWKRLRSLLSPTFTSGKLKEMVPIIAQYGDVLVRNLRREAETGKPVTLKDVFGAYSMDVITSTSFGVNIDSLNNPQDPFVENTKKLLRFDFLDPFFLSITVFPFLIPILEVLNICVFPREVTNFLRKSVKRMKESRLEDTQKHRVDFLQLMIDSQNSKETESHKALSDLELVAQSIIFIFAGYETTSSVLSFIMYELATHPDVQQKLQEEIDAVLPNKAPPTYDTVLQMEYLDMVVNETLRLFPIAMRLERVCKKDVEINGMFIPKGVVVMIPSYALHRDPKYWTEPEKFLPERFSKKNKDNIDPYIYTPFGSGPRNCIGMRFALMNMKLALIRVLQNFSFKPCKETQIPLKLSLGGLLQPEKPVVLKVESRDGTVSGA
Cytochrome P450 2C9, sequence (P11712 whole entry): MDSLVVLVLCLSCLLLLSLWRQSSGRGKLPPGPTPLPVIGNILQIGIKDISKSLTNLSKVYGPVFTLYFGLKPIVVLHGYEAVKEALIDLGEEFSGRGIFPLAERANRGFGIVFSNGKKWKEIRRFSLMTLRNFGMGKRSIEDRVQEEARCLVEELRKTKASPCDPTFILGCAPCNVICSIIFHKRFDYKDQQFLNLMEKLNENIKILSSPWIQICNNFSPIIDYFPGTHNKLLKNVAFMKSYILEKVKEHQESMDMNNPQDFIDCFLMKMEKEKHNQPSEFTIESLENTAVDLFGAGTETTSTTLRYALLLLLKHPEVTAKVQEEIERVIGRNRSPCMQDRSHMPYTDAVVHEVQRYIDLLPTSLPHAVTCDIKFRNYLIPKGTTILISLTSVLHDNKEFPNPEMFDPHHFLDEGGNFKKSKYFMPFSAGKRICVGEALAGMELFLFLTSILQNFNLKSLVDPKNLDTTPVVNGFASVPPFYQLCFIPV

CCc1cc(Nc2nc(-c3ccc(-n4cnc(C)c4)c(F)c3)cs2)c(C)cc1C
IC50 [1]: 10 nM

CCn1nc2c(c1Nc1nc(-c3ccc(-n4cnc(C)c4)c(F)c3)cs1)CCC2
solubility kinetic [2]: < 1.6 µM | IC50 (Gamma-secretase): 41 nM

CCn1nc(C(C)(C)C)cc1Nc1nc(-c2ccc(-n3cnc(C)c3)c(F)c2)cs1
Papp [3]: 0.97 ×10⁻⁶ cm/s | AUC(0-t) [4]: 335 ng·h/mL | Tmax [5]: 1 h | Vd [6]: 7.15 L/kg | IC50 (Cytochrome P450 2C9): > 100000 nM | Kp at 4 h [7]: 0.53 | Cmax [8]: 1000 ng/mL | logD [9]: 3.64 | IC50 [10]: > 30000 nM | Cmax [11]: 161 ng/mL | remaining at 0.5 h, 1 µM [12]: 95% | AUC(0-inf) [13]: 498 ng·h/mL | Kp [14]: 0.5 | fraction unbound [15]: 0.006 | AUC(0-t) [16]: 5390 ng·h/mL | Tmax [17]: 4.98 min | solubility kinetic [2]: 4.7 µM (≈ 2 µg/mL) | half-life [18]: 6 h | Kp at 8 h [19]: 0.59 | AUC(0-inf) [20]: 5720 ng·h/mL | remaining at 0.5 h, 1 µM [21]: 64% | IC50 (Cytochrome P450 3A4): 16000 nM | IC50 (Cytochrome P450 2C19): 82000 nM | remaining at 0.5 h, 1 µM [22]: 51% | clearance [23]: 33.5 mL/min/kg | efflux ratio [24]: 1.6 | IC50 (Cytochrome P450 1A2): > 100000 nM | IC50 (Gamma-secretase): 63 nM | CL [25]: 40% | IC50 (Cytochrome P450 2D6): > 100000 nM | half-life [26]: 2.4 h | Kp at 1 h [27]: 0.64

Cc1cn(-c2ccc(-c3csc(Nc4c5c(nn4C(C)(C)C)CCC5)n3)cc2F)cn1
IC50 (Gamma-secretase): 175 nM

Cc1cn(-c2ccc(-c3csc(Nc4cc(C(C)(C)C)nn4C)n3)cc2F)cn1
IC50 (Gamma-secretase): 294 nM

CCn1nc2c(c1N(C)c1nc(-c3ccc(-n4cnc(C)c4)c(F)c3)cs1)CCCC2
IC50 (Gamma-secretase): > 1000 nM

CCn1nc(C(F)(F)F)cc1Nc1nc(-c2ccc(-n3cnc(C)c3)c(F)c2)cs1
solubility kinetic [2]: < 1.6 µM | IC50 (Gamma-secretase): 110 nM

Cc1cn(-c2ccc(-c3csc(Nc4c5c(nn4CCN4CCCCC4)CCCC5)n3)cc2F)cn1
solubility kinetic [2]: 8.1 µM (≈ 4.1 µg/mL) | IC50 (Gamma-secretase): 475 nM

Cc1cn(-c2ccc(-c3csc(Nc4c5c(nn4CC(F)(F)F)CCCC5)n3)cc2F)cn1
IC50 (Gamma-secretase): 179 nM

Cc1cn(-c2ccc(-c3csc(Nc4c5c(nn4CCO)CCCC5)n3)cc2F)cn1
solubility kinetic [2]: 15 µM (≈ 6.58 µg/mL) | IC50 (Gamma-secretase): 362 nM

CCn1nc2c(c1Nc1nc(-c3ccc(-n4cnc(C)c4)c(F)c3)cs1)CCCCC2
IC50 (Gamma-secretase): 114 nM

Cc1cn(-c2ccc(-c3csc(Nc4c5c(nn4C)CCC5)n3)cc2F)cn1
IC50 (Gamma-secretase): > 1000 nM

Cc1cn(-c2ccc(-c3csc(Nc4c5c(nn4C(C)(C)C)CCCC5)n3)cc2F)cn1
IC50 (Gamma-secretase): 216 nM

CCn1nc2c(c1Nc1nc(-c3ccc(-n4cnc(C)c4)c(F)c3)cs1)C(C)CC2(C)C (stereo not given)
solubility kinetic [2]: 2.6 µM (≈ 1.17 µg/mL) | IC50 (Gamma-secretase): 49 nM

CCn1nc(C(C)C)cc1Nc1nc(-c2ccc(-n3cnc(C)c3)c(F)c2)cs1
IC50 (Gamma-secretase): 394 nM

CCCn1nc2c(c1Nc1nc(-c3ccc(-n4cnc(C)c4)c(F)c3)cs1)CCCC2
IC50 (Gamma-secretase): 148 nM

Cc1cn(-c2ccc(-c3csc(Nc4c5c(nn4C4CCC4)CCCC5)n3)cc2F)cn1
solubility kinetic [2]: < 1.6 µM | IC50 (Gamma-secretase): 112 nM

Cc1cn(-c2ccc(-c3csc(Nc4c5c(nn4C4CCCC4)CCCC5)n3)cc2F)cn1
IC50 (Gamma-secretase): 225 nM

Cc1cn(-c2ccc(-c3csc(Nc4c5c(nn4CC(C)(C)O)CCCC5)n3)cc2F)cn1
solubility kinetic [2]: < 1.6 µM | IC50 (Gamma-secretase): 55 nM

CCn1nc2c(c1Nc1nc(-c3ccc(-n4cnc(C)c4)c(F)c3)cs1)CCCC2
IC50 (Gamma-secretase): 163 nM

Cc1cn(-c2ccc(-c3csc(Nc4cc(C(F)(F)F)nn4CC(F)(F)F)n3)cc2F)cn1
IC50 (Gamma-secretase): 771 nM

Cc1cn(-c2ccc(-c3csc(Nc4c5c(nn4C4CCCCC4)CCCC5)n3)cc2F)cn1
IC50 (Gamma-secretase): 280 nM

From ChEMBL document CHEMBL4428049, “Design and synthesis of aminothiazole modulators of the gamma-secretase enzyme” (Bioorg Med Chem Lett, 2016)
